Test [1] concerns the target purified human plasma kallikrein (Homo sapiens (Human), UniProt P03952). The test can be described thus: biochemical. It is filed as biochemical. As to conditions: read-out: Plasma Kallikrein Ki.
For test [2], the target named is purified human Factor XIa (Homo sapiens (Human), UniProt P03951). The test can be described thus: biochemical. It is filed as biochemical. Conditions: read-out: Factor XIa Ki.

Structures are written as SMILES. Counter-ions that a name gives are not always drawn.

Chain of purified human plasma kallikrein (P03952 whole entry, looked up): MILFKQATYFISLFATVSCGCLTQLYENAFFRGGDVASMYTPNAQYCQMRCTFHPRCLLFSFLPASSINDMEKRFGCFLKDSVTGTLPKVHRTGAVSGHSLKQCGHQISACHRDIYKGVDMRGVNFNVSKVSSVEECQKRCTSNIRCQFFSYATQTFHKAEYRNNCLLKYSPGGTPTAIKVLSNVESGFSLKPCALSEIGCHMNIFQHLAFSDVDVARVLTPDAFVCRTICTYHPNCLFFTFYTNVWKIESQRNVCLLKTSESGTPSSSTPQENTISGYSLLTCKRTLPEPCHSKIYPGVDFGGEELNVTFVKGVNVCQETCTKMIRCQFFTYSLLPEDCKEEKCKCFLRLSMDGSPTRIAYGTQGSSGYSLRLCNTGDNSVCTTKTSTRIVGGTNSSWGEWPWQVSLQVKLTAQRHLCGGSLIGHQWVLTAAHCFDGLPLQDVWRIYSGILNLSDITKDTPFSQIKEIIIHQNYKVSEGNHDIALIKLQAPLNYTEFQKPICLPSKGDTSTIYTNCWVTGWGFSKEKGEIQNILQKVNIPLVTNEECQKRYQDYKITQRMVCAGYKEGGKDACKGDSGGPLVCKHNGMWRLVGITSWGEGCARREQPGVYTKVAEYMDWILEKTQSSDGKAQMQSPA
Chain of purified human plasma kallikrein (P03952 whole entry partner, looked up): as the sequence (P03952 whole entry, looked up) above
Chain of purified human Factor XIa (P03951 whole entry, looked up): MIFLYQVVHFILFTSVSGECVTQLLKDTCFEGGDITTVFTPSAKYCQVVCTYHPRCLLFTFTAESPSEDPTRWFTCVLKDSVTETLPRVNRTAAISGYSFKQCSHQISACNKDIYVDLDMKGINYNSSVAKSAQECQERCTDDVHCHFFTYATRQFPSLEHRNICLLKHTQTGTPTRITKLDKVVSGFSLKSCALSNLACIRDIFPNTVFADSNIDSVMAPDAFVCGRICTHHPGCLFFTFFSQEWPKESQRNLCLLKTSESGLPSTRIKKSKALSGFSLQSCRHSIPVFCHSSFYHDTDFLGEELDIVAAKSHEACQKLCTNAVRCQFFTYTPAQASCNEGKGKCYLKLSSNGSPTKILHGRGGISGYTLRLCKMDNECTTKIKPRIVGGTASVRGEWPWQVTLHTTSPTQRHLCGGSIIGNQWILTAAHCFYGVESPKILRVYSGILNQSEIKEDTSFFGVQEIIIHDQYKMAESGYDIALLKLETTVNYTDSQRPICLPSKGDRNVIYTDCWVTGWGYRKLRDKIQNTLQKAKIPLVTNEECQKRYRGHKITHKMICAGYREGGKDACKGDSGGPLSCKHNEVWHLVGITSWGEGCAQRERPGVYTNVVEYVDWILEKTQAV
Chain of purified human Factor XIa (P03951 whole entry partner, looked up): as the sequence (P03951 whole entry, looked up) above

Regarding `COC(=O)Nc1cc2c(cc1I)-c1ccnc(c1)[C@@H](N1CCC(c3c(F)ccc(Cl)c3F)=CC1=O)CCC[C@@H](C)C(=O)N2` [Example 62, Methyl N-[(10R,14S)-14-[4-(3-chloro-2,6-difluorophenyl)-6-oxo-1,2,3,6-tetrahydropyridin-1-yl]-4-iodo-10-methyl-9-oxo-8,16-diazatricyclo[13.3.1.0^2,7]nonadeca-1(19),2,4,6,15,17-hexaen-5-yl]carbamate, TFA salt], the Ki in test [1] was found to be 1100 nM; in test [2], 196 nM.

`CC(=O)NC(=S)Nc1ccc2c(c1)NC(=O)[C@H](C)CCC[C@H](N1CCC(c3c(F)ccc(Cl)c3F)=CC1=O)c1cc-2ccn1` [Example 63, 3-Acetyl-1-[(10R,14S)-14-[4-(3-chloro-2,6-difluorophenyl)-6-oxo-1,2,3,6-tetrahydropyridin-1-yl]-10-methyl-9-oxo-8,16-diazatricyclo[13.3.1.0^2,7]nonadeca-1(19),2,4,6,15,17-hexaen-5-yl]thiourea]: the Ki in test [1] is 48 nM; in test [2], 7.86 nM.

Regarding `COC(=O)Nc1ccc2c(c1)NC(=O)[C@H](C)CCC[C@H](N1CCC(c3c(F)ccc(Cl)c3F)=C(C)C1=O)c1cc-2ccn1` [Example 64, Methyl N-[(10R,14S)-14-[4-(3-chloro-2,6-difluorophenyl)-5-methyl-6-oxo-1,2,3,6-tetrahydropyridin-1-yl]-10-methyl-9-oxo-8,16-diazatricyclo[13.3.1.0^2,7]nonadeca-1(19),2,4,6,15,17-hexaen-5-yl]carbamate, TFA salt], the results for the Ki in test [1] and in test [2] were 171 nM and 16.6 nM, respectively.

Regarding `C[C@@H]1CCC[C@H](n2ccc(-c3cccc(Cl)c3F)cc2=O)c2cc(ccn2)-c2ccccc2NC1=O` [Example 65, (10R,14S)-14-[4-(3-Chloro-2-fluorophenyl)-2-oxo-1,2-dihydropyridin-1-yl]-10-methyl-8,16-diazatricyclo[13.3.1.0^2,7]nonadeca-1(19),2,4,6,15,17-hexaen-9-one, TFA salt], the results for the inhibition constant (Ki) in test [1] and in test [2] were 53 nM and 47.6 nM, respectively.

Regarding `C[C@@H]1CCC[C@H](N2CCC(c3c(N)ccc(Cl)c3F)=CC2=O)c2cc(ccn2)-c2ccccc2NC1=O` [Example 66, (10R,14S)-14-[4-(6-Amino-3-chloro-2-fluorophenyl)-6-oxo-1,2,3,6-tetrahydropyridin-1-yl]-10-methyl-8,16-diazatricyclo[13.3.1.0^2,7]nonadeca-1(19),2,4,6,15,17-hexaen-9-one, TFA salt], the Ki in test [1] worked out at 45 nM; in test [2] it was 66.6 nM.

In the case of `C[C@@H]1CCC[C@H](N2CCC(c3c(F)ccc(Cl)c3F)=CC2=O)c2cc(ccn2)-c2ccc(Br)cc2NC1=O` [Example 69, (10R,14S)-5-Bromo-14-[4-(3-chloro-2,6-difluorophenyl)-6-oxo-1,2,3,6-tetrahydropyridin-1-yl]-10-methyl-8,16-diazatricyclo[13.3.1.0^2,7]nonadeca-1(19),2,4,6,15,17-hexaen-9-one, TFA salt], the Ki in test [1] stood at 338 nM; in test [2] it was 79.2 nM.

On to `C[C@@H]1CCC[C@H](N2CCC(c3c(F)ccc(Cl)c3F)=CC2=O)c2cc(cc[n+]2[O-])-c2ccc(N)cc2NC1=O` [Example 70, (10R,14S)-5-Amino-14-[4-(3-chloro-2,6-difluorophenyl)-6-oxo-1,2,3,6-tetrahydropyridin-1-yl]-10-methyl-9-oxo-8,16-diazatricyclo[13.3.1.0^2,7]nonadeca-1(19),2,4,6,15,17-hexaen-16-ium-16-olate, TFA salt], for which the Ki in test [1] stood at 18 nM; in test [2], 8.02 nM.

For the molecule `C[C@@H]1CCC[C@H](N2CCC(c3cc(Cl)ccc3-n3cncn3)=CC2=O)c2cc(ccn2)-c2ccccc2NC1=O` [Example 71, (10R,14S)-14-{4-[5-Chloro-2-(1H-1,2,4-triazol-1-yl)phenyl]-6-oxo-1,2,3,6-tetrahydropyridin-1-yl}-10-methyl-8,16-diazatricyclo[13.3.1.0^2,7]nonadeca-1(19),2(7),3,5,15,17-hexaen-9-one, TFA salt], the Ki in test [1] came to 60 nM; in test [2] it was 1.68 nM.

On to `COC(=O)Nc1ccc2c(c1)NC(=O)[C@H](C)CCC[C@H](N1CC(C)C(c3c(F)ccc(Cl)c3F)=CC1=O)c1cc-2ccn1` (stereo partly drawn) [Example 73, Methyl N-[(10R,14S)-14-[4-(3-chloro-2,6-difluorophenyl)-3-methyl-6-oxo-1,2,3,6-tetrahydropyridin-1-yl]-10-methyl-9-oxo-8,16-diazatricyclo[13.3.1.0^2,7]nonadeca-1(19),2(7),3,5,15,17-hexaen-5-yl]carbamate, TFA salt], for which the Ki amounted to 6 nM in test [1] and 0.88 nM in test [2].

In the case of `Cc1ncn(-c2ccc(Cl)cc2C2=CC(=O)N([C@H]3CCC[C@@H](C)C(=O)Nc4ccccc4-c4ccnc3c4)CC2)n1` [Example 74, (10R,14S)-14-{4-[5-Chloro-2-(3-methyl-1H-1,2,4-triazol-1-yl)phenyl]-6-oxo-1,2,3,6-tetrahydropyridin-1-yl}-10-methyl-8,16-diazatricyclo[13.3.1.0^2,7]nonadeca-1(19),2(7),3,5,15,17-hexaen-9-one, TFA salt], the Ki in test [1] came out at 238 nM; in test [2], 40.1 nM.

Consider `COC(=O)Nc1ccc2c(c1)NC(=O)[C@H](C)CCC[C@H](n1ncc(-c3c(Br)ccc(Cl)c3F)cc1=O)c1cc-2ccn1` [Example 78, Methyl N-[(10R,14S)-14-[4-(6-bromo-3-chloro-2-fluorophenyl)-6-oxo-1,6-dihydropyridazin-1-yl]-10-methyl-9-oxo-8,16-diazatricyclo[13.3.1.0^2,7]nonadeca-1(19),2(7),3,5,15,17-hexaen-5-yl]carbamate, TFA salt], for which the Ki in test [1] was determined as 5 nM; in test [2] it was 0.98 nM.

Turning to `COC(=O)Nc1ccc2c(c1)NC(=O)[C@H](C)CCC[C@H](n1ncc(-c3c(C#N)ccc(Cl)c3F)cc1=O)c1cc-2ccn1` [Example 79, Methyl N-[(10R,14S)-14-[4-(3-chloro-6-cyano-2-fluorophenyl)-6-oxo-1,6-dihydropyridazin-1-yl]-10-methyl-9-oxo-8,16-diazatricyclo[13.3.1.0^2,7]nonadeca-1(19),2(7),3,5,15,17-hexaen-5-yl]carbamate, TFA salt], the Ki came out at 3 nM in test [1] and 0.55 nM in test [2].

For `C[C@@H]1CCC[C@H](N2CCC(c3c(F)ccc(Cl)c3F)=CC2=O)c2cc(ccn2)-c2c(F)cccc2NC1=O` [Example 80, (10R,14S)-14-[4-(3-Chloro-2,6-difluorophenyl)-6-oxo-1,2,3,6-tetrahydropyridin-1-yl]-3-fluoro-10-methyl-8,16-diazatricyclo[13.3.1.0^2,7]nonadeca-1(19),2(7),3,5,15,17-hexaen-9-one, TFA salt], the Ki in test [1] turned out to be 38 nM; in test [2] it was 13.6 nM.

In the case of `C[C@@H]1CCC[C@H](N2CCC(c3c(F)ccc(Cl)c3F)=CC2=O)c2cc(ccn2)-c2cc3ccc(=O)[nH]c3cc2NC1=O` [Example 81, (14R,18S)-18-[4-(3-Chloro-2,6-difluorophenyl)-6-oxo-1,2,3,6-tetrahydropyridin-1-yl]-14-methyl-8,12,20-triazatetracyclo[17.3.1.0^2,11.0^4,9]tricosa-1(23),2,4(9),5,10,19,21-heptaene-7,13-dione, TFA salt], the Ki in test [1] was 1 nM; in test [2], 0.31 nM.

Consider `Cc1[nH]c2cc3c(cc2c1C(=O)O)-c1ccnc(c1)[C@@H](N1CCC(c2c(F)ccc(Cl)c2F)=CC1=O)CCC[C@@H](C)C(=O)N3` [Example 83, (13R,17S)-17-[4-(3-Chloro-2,6-difluorophenyl)-6-oxo-1,2,3,6-tetrahydropyridin-1-yl]-6,13-dimethyl-12-oxo-7,11,19-triazatetracyclo[16.3.1.0^2,10.0^4,8]docosa-1(22),2,4(8),5,9,18,20-heptaene-5-carboxylic acid, TFA salt], for which the Ki in test [1] was found to be 7 nM; in test [2], 0.06 nM.

As to `C[C@@H]1CCC[C@H](N2CCC(c3c(F)ccc(Cl)c3F)=CC2=O)c2cc(ccn2)-c2cc3c(cc2NC1=O)NC(=O)C3` [Example 84, (13R,17S)-17-[4-(3-Chloro-2,6-difluorophenyl)-6-oxo-1,2,3,6-tetrahydropyridin-1-yl]-13-methyl-7,11,19-triazatetracyclo[16.3.1.0^2,10.0^4,8]docosa-1(22),2,4(8),9,18,20-hexaene-6,12-dione, TFA salt], the Ki in test [1] turned out to be 16 nM; in test [2] it was 2.68 nM.

As for `Cc1cc2cc3c(cc2[nH]1)NC(=O)[C@H](C)CCC[C@H](N1CCC(c2c(F)ccc(Cl)c2F)=CC1=O)c1cc-3ccn1` [Example 85, (13R,17S)-17-[4-(3-Chloro-2,6-difluorophenyl)-6-oxo-1,2,3,6-tetrahydropyridin-1-yl]-6,13-dimethyl-7,11,19-triazatetracyclo[16.3.1.0^2,10.0^4,8]docosa-1(22),2,4(8),5,9,18,20-heptaen-12-one, TFA salt], the Ki came out at 47 nM in test [1] and 9.17 nM in test [2].

Take `C[C@@H]1CCC[C@H](N2CCC(c3c(F)ccc(Cl)c3F)=CC2=O)c2cc(ccn2)-c2cc3c(cc2NC1=O)NC(=O)CC3` [Example 86, (14R,18S)-18-[4-(3-Chloro-2,6-difluorophenyl)-6-oxo-1,2,3,6-tetrahydropyridin-1-yl]-14-methyl-8,12,20-triazatetracyclo[17.3.1.0^2,11.0^4,9]tricosa-1(23),2(11),3,9,19,21-hexaene-7,13-dione, TFA salt]: the figures for the Ki in test [1] and in test [2] were 1 nM and 0.72 nM, respectively.

As for `C[C@@H]1CCC[C@H](N2CCC(c3c(F)ccc(Cl)c3F)=CC2=O)c2cc(ccn2)-c2ccc(Nc3ccccn3)cc2NC1=O` [Example 88, (10R,14S)-14-[4-(3-Chloro-2,6-difluorophenyl)-6-oxo-1,2,3,6-tetrahydropyridin-1-yl]-10-methyl-5-[(pyridin-2-yl)amino]-8,16-diazatricyclo[13.3.1.0^2,7]nonadeca-1(19),2(7),3,5,15,17-hexaen-9-one, 2TFA salt], the Ki in test [1] worked out at 5 nM; in test [2], 1.04 nM.

The values are drawn from US9409908B2 (priority 2012, dated 2016).
